Measurements reported in BindingDB's records for doi:10.1016/j.bmcl.2011.01.001 (Abbott Laboratories, 2011).

molecular target: Aurora kinase A (Homo sapiens) (UniProt O14965); assay: Inhibition of aurora 2
Sequence (O14965 whole entry, looked up): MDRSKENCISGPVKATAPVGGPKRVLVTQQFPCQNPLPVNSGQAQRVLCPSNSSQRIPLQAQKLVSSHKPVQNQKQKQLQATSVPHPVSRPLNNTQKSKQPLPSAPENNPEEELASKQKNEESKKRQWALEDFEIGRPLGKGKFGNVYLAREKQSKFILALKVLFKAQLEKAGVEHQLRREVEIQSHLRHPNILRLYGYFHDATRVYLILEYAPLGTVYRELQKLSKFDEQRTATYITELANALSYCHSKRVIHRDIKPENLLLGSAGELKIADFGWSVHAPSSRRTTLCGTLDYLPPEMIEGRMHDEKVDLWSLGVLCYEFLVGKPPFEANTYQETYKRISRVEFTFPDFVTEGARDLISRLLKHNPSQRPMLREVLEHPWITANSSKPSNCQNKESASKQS

SMILES | Ki
c1ccc(CNc2nc(-c3ccc4[nH]ncc4c3)c(-c3ccccc3)s2)cc1 [N-benzyl-4-(1H-indazol-5-yl)-5-phenylthiazol-2-amine] | > 4.9 µM
c1ccc(-c2c(-c3ccc4[nH]ncc4c3)nc3ncccn23)cc1 [2-(1H-indazol-5-yl)-3-phenylimidazo[1,2-a]pyrimidine] | > 4.9 µM
CN(C)CCn1cnc(-c2ccc(F)cc2)c1-c1ccc2[nH]ncc2c1 [2-(4-(4-fluorophenyl)-5-(1H-indazol-5-yl)-1H-imidazol-1-yl)-N,N-dimethylethanamine] | > 4.9 µM
Fc1ccc(-c2ncn(CCCN3CCOCC3)c2-c2ccc3[nH]ncc3c2)cc1 [4-(3-(4-(4-fluorophenyl)-5-(1H-indazol-5-yl)-1H-imidazol-1-yl)propyl)morpholine] | > 4.9 µM
c1ccc(Nc2nc(-c3ccc4[nH]ncc4c3)c(-c3ccccc3)s2)cc1 [4-(1H-indazol-5-yl)-N,5-diphenylthiazol-2-amine] | > 4.9 µM
CCCCNc1c(-c2ccc3[nH]ncc3c2)nc2ncccn12 [N-butyl-2-(1H-indazol-5-yl)imidazo[1,2-a]pyrimidin-3-amine] | > 4.9 µM

Next, values leading:

Ki | SMILES
> 4.9 µM | Fc1ccc(-c2ncn(C3CCN(Cc4ccccc4)C3)c2-c2ccc3[nH]ncc3c2)cc1 (centres undefined) [5-(1-(1-benzylpyrrolidin-3-yl)-4-(4-fluorophenyl)-1H-imidazol-5-yl)-1H-indazole]
8.67 µM | c1ccn2c(NC3CCCCC3)c(-c3ccc4[nH]ncc4c3)nc2c1 [N-cyclohexyl-2-(1H-indazol-5-yl)imidazo[1,2-a]pyridin-3-amine]
3.41 µM | CCNc1nc(-c2ccc3[nH]ncc3c2)cs1 [N-ethyl-4-(1H-indazol-5-yl)thiazol-2-amine]
2.07 µM | c1cn2c(NC3CCCCC3)c(-c3ccc4[nH]ncc4c3)nc2cn1 [N-cyclohexyl-2-(1H-indazol-5-yl)imidazo[1,2-a]pyrazin-3-amine]
4.45 µM | Cc1nc(-c2ccc3[nH]ncc3c2)cs1 [4-(1H-indazol-5-yl)-2-methylthiazole]
2.12 µM | Nc1nc(-c2ccc3[nH]ncc3c2)cs1 [4-(1H-indazol-5-yl)thiazol-2-amine]
0.81 µM | c1ccc(CCNc2nc(-c3ccc4[nH]ncc4c3)cs2)cc1 [4-(1H-indazol-5-yl)-N-phenethylthiazol-2-amine]
2.81 µM | Clc1ccc(Nc2c(-c3ccc4[nH]ncc4c3)nc3ncccn23)cc1 [N-(4-chlorophenyl)-2-(1H-indazol-5-yl)imidazo[1,2-a]pyrimidin-3-amine]
